MIC data for 9 compounds are collected here from ChEMBL document CHEMBL1649221, “Novel genetic environment of the carbapenem-hydrolyzing beta-lactamase KPC-2 among Enterobacteriaceae in China” (2009).

Values after ≈ are worked out from the molar mass of the structure shown. Bounds are passed on as bounds.

Assay type in all cases: functional
The subject of experiment [1] is Klebsiella pneumoniae. Nature of the experiment: Antimicrobial activity against Klebsiella pneumoniae PFGE clone B expressing beta-lactamase KPC-2 by Etest.
Experiment [2] concerns Klebsiella pneumoniae. The experiment can be described thus: Antimicrobial activity against Klebsiella pneumoniae PFGE clone C expressing beta-lactamase KPC-2 by Etest.
Experiment [3] relates to Klebsiella pneumoniae. Nature of the experiment: Antimicrobial activity against Klebsiella pneumoniae PFGE clone A expressing beta-lactamase KPC-2 by Etest.
In experiment [4] the test system is Enterobacter cloacae. The experiment can be described thus: Antimicrobial activity against Enterobacter cloacae expressing beta-lactamase KPC-2 by Etest.
In experiment [5] the test system is Klebsiella pneumoniae. Nature of the experiment: Antimicrobial activity against Klebsiella pneumoniae PFGE clone F expressing beta-lactamase KPC-2 by Etest.
The test system of experiment [6] is Klebsiella pneumoniae. The experiment can be described thus: Antimicrobial activity against Klebsiella pneumoniae PFGE clone E expressing beta-lactamase KPC-2 by Etest.
The test system of experiment [7] is Klebsiella oxytoca. Nature of the experiment: Antimicrobial activity against Klebsiella oxytoca expressing beta-lactamase KPC-2 by Etest.
Experiment [8] deals with Klebsiella pneumoniae. Nature of the experiment: Antimicrobial activity against Klebsiella pneumoniae PFGE clone D expressing beta-lactamase KPC-2 by Etest.
Experiment [9] relates to Enterobacter cloacae. Nature of the experiment: Antimicrobial activity against Enterobacter cloacae expressing beta-lactamase KPC-2 by Etest in presence of beta-lactamase inhibitor Tazobactam.
Experiment [10] concerns Klebsiella pneumoniae. The experiment can be described thus: Antimicrobial activity against Klebsiella pneumoniae PFGE clone F expressing beta-lactamase KPC-2 by Etest in presence of beta-lactamase inhibitor Tazobactam.
Experiment [11] relates to Klebsiella pneumoniae. Nature of the experiment: Antimicrobial activity against Klebsiella pneumoniae PFGE clone E expressing beta-lactamase KPC-2 by Etest in presence of beta-lactamase inhibitor Tazobactam.
Experiment [12] deals with Klebsiella pneumoniae. Nature of the experiment: Antimicrobial activity against Klebsiella pneumoniae PFGE clone D expressing beta-lactamase KPC-2 by Etest in presence of beta-lactamase inhibitor Tazobactam.
Experiment [13] relates to Klebsiella oxytoca. Nature of the experiment: Antimicrobial activity against Klebsiella oxytoca expressing beta-lactamase KPC-2 by Etest in presence of beta-lactamase inhibitor Tazobactam.
Experiment [14] deals with Klebsiella pneumoniae. Nature of the experiment: Antimicrobial activity against Klebsiella pneumoniae PFGE clone C expressing beta-lactamase KPC-2 by Etest in presence of beta-lactamase inhibitor Tazobactam.
The test system of experiment [15] is Klebsiella pneumoniae. The experiment can be described thus: Antimicrobial activity against Klebsiella pneumoniae PFGE clone B expressing beta-lactamase KPC-2 by Etest in presence of beta-lactamase inhibitor Tazobactam.
Experiment [16] deals with Klebsiella pneumoniae. The experiment can be described thus: Antimicrobial activity against Klebsiella pneumoniae PFGE clone A expressing beta-lactamase KPC-2 by Etest in presence of beta-lactamase inhibitor Tazobactam.

As a reminder, the MIC is the lowest concentration found to suppress growth.

`C[C@@H](O)[C@H]1C(=O)N2C(C(=O)O)=C(S[C@@H]3CN[C@H](C(=O)Nc4cccc(C(=O)O)c4)C3)[C@H](C)[C@H]12`: the MIC in the experiment on Klebsiella pneumoniae [1], with Klebsiella pneumoniae [2], in the experiment with Klebsiella pneumoniae [3], in the experiment on Enterobacter cloacae [4], in the experiment on Klebsiella pneumoniae [5] and against Klebsiella pneumoniae [6] was above 32 µg/mL each time. Moreover, the MIC against Klebsiella oxytoca [7] and against Klebsiella pneumoniae [8] was above 16 µg/mL each time.

Turning to `NCC[C@H](O)C(=O)N[C@@H]1C[C@H](N)[C@@H](O[C@H]2O[C@H](CN)[C@@H](O)[C@H](O)[C@H]2O)[C@H](O)[C@H]1O[C@H]1O[C@H](CO)[C@@H](O)[C@H](N)[C@H]1O` [AMIKACIN], the MIC against Klebsiella pneumoniae [1] was above 1 µg/mL; against Klebsiella pneumoniae [2], above 1 µg/mL; with Klebsiella pneumoniae [3], above 256 µg/mL; against Enterobacter cloacae [4] it was above 256 µg/mL; in the experiment on Klebsiella pneumoniae [5] it was 2 µg/mL (≈ 3.42 µM); against Klebsiella pneumoniae [6] it was above 1 µg/mL. Further, the MIC was 2 µg/mL (≈ 3.42 µM) with Klebsiella oxytoca [7] and above 256 µg/mL against Klebsiella pneumoniae [8].

As for `CCN1CCN(C(=O)N[C@@H](C(=O)N[C@@H]2C(=O)N3[C@@H]2SC(C)(C)[C@@H]3C(=O)O)c2ccccc2)C(=O)C1=O` [PIPERACILLIN], the MIC in the experiment on Enterobacter cloacae [9], in the experiment with Klebsiella pneumoniae [10], in the experiment with Klebsiella pneumoniae [11], in the experiment on Klebsiella pneumoniae [12], with Klebsiella oxytoca [13] and with Klebsiella pneumoniae [14] was above 256 µg/mL each time. For the same compound, the MIC with Klebsiella pneumoniae [15] and in the experiment with Klebsiella pneumoniae [16] was above 256 µg/mL in each case.

Turning to `CO[C@@]1(NC(=O)Cc2cccs2)C(=O)N2C(C(=O)O)=C(COC(N)=O)CS[C@@H]21` [CEFOXITIN], the MIC was above 128 µg/mL in the experiment on Klebsiella pneumoniae [1]; above 128 µg/mL with Klebsiella pneumoniae [2]; above 256 µg/mL in the experiment with Klebsiella pneumoniae [3]; above 256 µg/mL against Enterobacter cloacae [4]; above 32 µg/mL against Klebsiella pneumoniae [5]; 32 µg/mL (≈ 74.9 µM) in the experiment with Klebsiella pneumoniae [6]. In addition, the minimum inhibitory concentration (MIC) against Klebsiella oxytoca [7] was above 256 µg/mL; against Klebsiella pneumoniae [8] it was above 64 µg/mL.

As to `CN(C)c1cc(NC(=O)CNC(C)(C)C)c(O)c2c1C[C@H]1C[C@H]3[C@H](N(C)C)C(O)=C(C(N)=O)C(=O)[C@@]3(O)C(O)=C1C2=O` [TIGECYCLINE], the minimal inhibitory concentration (MIC) stood at 0.5 µg/mL (≈ 0.854 µM) in the experiment with Klebsiella pneumoniae [1]; 0.5 µg/mL (≈ 0.854 µM) in the experiment on Klebsiella pneumoniae [2]; 2 µg/mL (≈ 3.41 µM) in the experiment with Klebsiella pneumoniae [3]; 2 µg/mL (≈ 3.41 µM) in the experiment on Enterobacter cloacae [4]; 0.38 µg/mL (≈ 0.649 µM) with Klebsiella pneumoniae [5]; 1 µg/mL (≈ 1.71 µM) with Klebsiella pneumoniae [6]. In addition, the values for the MIC with Klebsiella oxytoca [7] and against Klebsiella pneumoniae [8] were 2 µg/mL (≈ 3.41 µM) and 0.5 µg/mL (≈ 0.854 µM), respectively.

Consider `C[C@@H](O)[C@H]1C(=O)N2C(C(=O)O)=C(S[C@@H]3CN[C@H](C(=O)N(C)C)C3)[C@H](C)[C@H]12` [MEROPENEM], for which the MIC was above 32 µg/mL in the experiment with Klebsiella pneumoniae [1]; above 32 µg/mL against Klebsiella pneumoniae [2]; above 32 µg/mL against Klebsiella pneumoniae [3]; above 32 µg/mL against Enterobacter cloacae [4]; above 32 µg/mL against Klebsiella pneumoniae [5]; above 16 µg/mL in the experiment on Klebsiella pneumoniae [6]. The MIC is above 32 µg/mL against Klebsiella oxytoca [7] and above 2 µg/mL against Klebsiella pneumoniae [8].

Take COLISTIN: the MIC was determined as 0.5 µg/mL in the experiment on Klebsiella pneumoniae [1]; 0.5 µg/mL against Klebsiella pneumoniae [2]; 0.25 µg/mL in the experiment with Klebsiella pneumoniae [3]; 0.5 µg/mL against Enterobacter cloacae [4]; 0.5 µg/mL against Klebsiella pneumoniae [5]; 0.5 µg/mL with Klebsiella pneumoniae [6]. The MIC with Klebsiella oxytoca [7] is 1 µg/mL; in the experiment with Klebsiella pneumoniae [8], 0.5 µg/mL.

Turning to `C[C@@H](O)[C@H]1C(=O)N2C(C(=O)O)=C(SCCNC=N)C[C@H]12` [IMIPENEM ANHYDROUS], the MIC with Klebsiella pneumoniae [1] was above 16 µg/mL; against Klebsiella pneumoniae [2] it was above 32 µg/mL; in the experiment with Klebsiella pneumoniae [3] it was above 32 µg/mL; in the experiment on Enterobacter cloacae [4], above 32 µg/mL; against Klebsiella pneumoniae [5], above 32 µg/mL; against Klebsiella pneumoniae [6], above 16 µg/mL. The minimal inhibitory concentration (MIC) is above 32 µg/mL in the experiment on Klebsiella oxytoca [7] and above 2 µg/mL against Klebsiella pneumoniae [8].

`CC(C)(O/N=C(\C(=O)N[C@@H]1C(=O)N2C(C(=O)[O-])=C(C[n+]3ccccc3)CS[C@H]12)c1csc(N)n1)C(=O)O` [CEFTAZIDIME]: the MIC against Klebsiella pneumoniae [1] is above 128 µg/mL; in the experiment with Klebsiella pneumoniae [2], above 256 µg/mL; against Klebsiella pneumoniae [3], above 256 µg/mL; with Enterobacter cloacae [4], above 256 µg/mL; with Klebsiella pneumoniae [5] it was above 256 µg/mL; against Klebsiella pneumoniae [6], above 32 µg/mL. For the same compound, the MIC was 128 µg/mL (≈ 234 µM) against Klebsiella oxytoca [7] and above 32 µg/mL in the experiment on Klebsiella pneumoniae [8].
